The data set can be described thus: Solubility of 25HC3S in 10 mM sodium phosphate buffer pH 7.6 with HPbCD at 5, 15 and 25°C. The format is physicochemical. As to conditions: 25°C/60% RH, supernatant.

Regarding `C[C@H](CCCC(C)(C)O)[C@H]1CC[C@H]2[C@@H]3CC=C4C[C@@H](OS(=O)(=O)[O-])CC[C@]4(C)[C@H]3CC[C@]12C.[Na+]` [25HC3S, 5-cholesten-3, 25-diol, 3-sulfate], the “pH of Filtrate Day 3” value is recorded as 7.532 (HPbCD 0 mg/mL) and 7.842 (HPbCD 250 mg/mL).

The values are drawn from US20230047788A1, “COMPOSITIONS COMPRISING 5-CHOLESTEN-3, 25-DIOL, 3-SULFATE (25HC3S) OR PHARMACEUTICALLY ACCEPTABLE SALT THEREOF AND AT LEAST ONE CYCLIC OLIGOSACCHARIDE” (Virginia Commonwealth University, priority 2016, published 2023).
